Here are results for 16 molecules from patent publication US11319322B2, “Substituted aryl ether compound, preparation method thereof, pharmaceutical composition and use thereof” (Xiamen University, priority 2017, dated 2022).

Structures are written as SMILES.

Assay type in all cases: cell-based
Assay [1] has as its target T1, KIF5B-RET-BaF3 (Homo sapiens, UniProt P07949).
T1 construct: fused on or other part: P33176 (Kinesin-1 heavy chain)
Kind of assay: Growth inhibition of KIF5B-RET-BaF3 cells stably transfected with kinase (MTS). The note with it: 48 h, read-out: KIF5B-RET (IC50/nM). An outline of the steps:
(§1)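 IC50 derived from growth inhibition by MTS absorbance at 490 nm after 48 h compound exposure (top 10 μM, 1:3 steps, 8 points, 0.1% DMSO) of 2×10^4 RET-fusion (CCDC6-RET, KIF5B-RET) or wild-type BaF3 cells per well, in triplicate.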

Assay [2] addresses T2, CCDC6-RET-BaF3 (Homo sapiens, UniProt P07949).
T2 construct: fused on or other part: Q16204 (Coiled-coil domain-containing protein 6)
Nature of the assay: Growth inhibition of CCDC6-RET-BaF3 cells stably transfected with kinase (MTS). The note with it: 48 h, read-out: CCDC6-RET (IC50/nM). The essentials: as §1

Assay [3] deals with wild-type BaF3. Kind of assay: Growth inhibition of wild-type BaF3 cells, broad-spectrum toxicity (MTS). The note with it: Mus musculus, 48 h, read-out: WT Ba/F3 (IC50/nM). Here is the method: Growth inhibitory activity of compounds on cell lines stably transfected with kinase
The activity of compounds against kinase RET is evaluated by their effect of inhibiting growth of cell lines stably transfected with kinase CCDC6-RET-BaF3, KIF5B-RET-BaF3, and wild-type BaF3 (Proc. Natl. Acad. Sci. USA., 2006, 103, 3153-8.). The growth of the cell lines stably transfected with kinase CCDC6-RET-BaF3, KIF5B-RET-BaF3 depends on their kinase activity. If a compound can inhibit the activity of the kinase RET per se or the activity of the RET signaling pathway, the compound can inhibit the growth of BaF3 cells stably transfected with kinase. […] Therefore, a larger ratio between IC50 of a compound to wild-type BaF3 and IC50 of the compound to the cell lines stably transfected with kinase CCDC6-RET-BaF3, KIF5B-RET-BaF3 indicates better targeting.
The specific test method is given as follows:
1) Medium: DMEM (Dulbecco's modified eagle medium) or RPMI 1640 (containing 10% fetal bovine serum, 100 μg/mL ampicillin, 100 μg/mL streptomycin).
2) Reagents: MTS reaction solution (containing 2 mg/mL of MTS [3-(4,5-dimethylthiazol-2-yl)-5-(3-carboxymethoxyphenyl)-2-(4-sulfophenyl)-2H-tetrazolium, inner Salt]; 100 μg/mL PES (phenazine […])).
3) Compound test: cells stably transfected with kinase (CCDC6-RET-BaF3, KIF5B-RET-BaF3) or wild-type BaF3 cells (2×10^4 cells/well) were incubated into a 96-well culture plate, the volume of cell culture fluid was 90 μL, and then 10 μL of the compound at each gradient concentration was added (the highest concentration was 10 μM, which was diluted stepwise by ⅓, and 8 concentration points were set in total; the system contained 0.1% DMSO (dimethyl sulfoxide)). The cell plate with uniformly mixed compound was cultured in a cell culture incubator (37° C.; 5% CO2) for 48 h, then 20 μL of MTS reaction solution was added, uniformly mixed and incubated in the cell culture incubator (37° C.; 5% CO2) for 1-4 hr, OD values at 490 nm were measured by a microplate reader (VARIOSKAN FLASH, Thermo). Three parallels were set in each group of experiments, with 0.1% (a final concentration) DMSO as a negative control, and a medium without cells or compounds as a blank control. The cell growth inhibition rate was calculated by the following formula: Cell growth inhibition rate %=1−(ODexperimental group−ODblank group)/(ODnegative group−ODblank group)×100%
4) IC50 calculation: The semi-inhibitory concentration of the compound acting on cell growth was calculated using GradPad Prism 5 software according to the measured cell growth inhibition rate.

T1 sequence (P07949 whole entry, change not shown, the tested form may be a part): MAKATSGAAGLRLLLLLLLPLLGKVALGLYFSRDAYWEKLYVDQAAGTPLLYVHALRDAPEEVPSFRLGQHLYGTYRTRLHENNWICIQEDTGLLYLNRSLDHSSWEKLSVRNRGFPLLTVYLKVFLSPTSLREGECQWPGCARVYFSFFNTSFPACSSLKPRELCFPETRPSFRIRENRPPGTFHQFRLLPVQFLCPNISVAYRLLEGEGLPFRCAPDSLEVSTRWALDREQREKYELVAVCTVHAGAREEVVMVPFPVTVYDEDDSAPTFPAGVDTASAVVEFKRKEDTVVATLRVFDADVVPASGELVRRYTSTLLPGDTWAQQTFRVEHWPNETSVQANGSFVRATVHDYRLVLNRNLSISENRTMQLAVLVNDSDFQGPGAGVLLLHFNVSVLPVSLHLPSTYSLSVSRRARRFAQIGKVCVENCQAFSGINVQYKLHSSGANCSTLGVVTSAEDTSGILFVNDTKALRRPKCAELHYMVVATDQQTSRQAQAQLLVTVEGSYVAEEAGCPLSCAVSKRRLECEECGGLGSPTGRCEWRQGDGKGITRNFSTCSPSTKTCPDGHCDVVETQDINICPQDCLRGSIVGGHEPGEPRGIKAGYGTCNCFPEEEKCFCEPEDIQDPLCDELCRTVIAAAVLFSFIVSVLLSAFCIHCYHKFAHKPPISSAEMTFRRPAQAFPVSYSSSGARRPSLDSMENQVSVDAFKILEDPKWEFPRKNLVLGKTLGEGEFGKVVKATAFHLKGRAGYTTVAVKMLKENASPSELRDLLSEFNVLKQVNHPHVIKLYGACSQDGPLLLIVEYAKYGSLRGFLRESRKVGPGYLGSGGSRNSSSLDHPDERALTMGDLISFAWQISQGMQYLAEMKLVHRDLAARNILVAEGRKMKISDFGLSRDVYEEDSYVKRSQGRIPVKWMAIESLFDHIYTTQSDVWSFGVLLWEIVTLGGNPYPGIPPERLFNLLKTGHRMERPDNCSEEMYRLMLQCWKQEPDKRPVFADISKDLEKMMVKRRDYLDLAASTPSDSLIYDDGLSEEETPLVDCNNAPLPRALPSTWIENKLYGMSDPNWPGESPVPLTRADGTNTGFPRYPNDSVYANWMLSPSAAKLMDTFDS
T2 sequence (P07949 whole entry, change not shown, the tested form may be a part): as above

Regarding `CN1CCN(Cc2ccc(C(=O)Nc3cc(Oc4nc(-c5ccoc5)nc5cc[nH]c45)ccc3Cl)cc2C(F)(F)F)CC1` [III-k-5], the GI50 in assay [1] came to 1920 nM; in assay [2], 1490 nM. In assay [3], the IC50 was 4360 nM.

On to `CN1CCN(Cc2ccc(C(=O)Nc3cc(Oc4nc(-c5ccoc5)nc5ccn(C)c45)ccc3Cl)cc2C(F)(F)F)CC1` [III-k-6], for which the GI50 in assay [1] turned out to be 1010 nM; in assay [2], 990 nM. Also, the IC50 in assay [3] stood at 2470 nM.

Regarding `CN1CCN(Cc2ccc(C(=O)Nc3cc(Oc4nc(-c5ccsc5)nc5cc[nH]c45)ccc3Cl)cc2C(F)(F)F)CC1` [III-k-7], the GI50 in assay [1] is 1900 nM; in assay [2], 2960 nM. In addition, in assay [3], the IC50 came to 3720 nM.

In the case of `CN1CCN(Cc2ccc(C(=O)Nc3cc(Oc4nc(-c5ccsc5)nc5ccn(C)c45)ccc3Cl)cc2C(F)(F)F)CC1` [III-k-8], the GI50 in assay [1] is 3580 nM; in assay [2] it was 3460 nM. Besides, the IC50 in assay [3] was determined as 3990 nM.

For `CN1CCN(Cc2ccc(C(=O)Nc3cc(Oc4nc(-c5ccc(O)cc5)nc5cc[nH]c45)ccc3Cl)cc2C(F)(F)F)CC1` [III-k-9], the GI50 in assay [1] worked out at 1490 nM; in assay [2] it was 1190 nM. In assay [3], the IC50 worked out at 1650 nM.

Take `CN1CCN(Cc2ccc(C(=O)Nc3cc(Oc4nc(-c5ccc(O)cc5)nc5ccn(C)c45)ccc3Cl)cc2C(F)(F)F)CC1` [III-k-10]: the results for the GI50 in assay [1] and in assay [2] were 2440 nM and 2300 nM, respectively. Also, the IC50 in assay [3] was found to be 1440 nM.

With `CN1CCN(Cc2ccc(C(=O)Nc3cc(Oc4nc(-c5ccc(N)cc5)nc5cc[nH]c45)ccc3Cl)cc2C(F)(F)F)CC1` [III-k-11], the figures for the GI50 in assay [1] and in assay [2] were 496 nM and 451 nM, respectively. Further, the IC50 in assay [3] came out at 1290 nM.

`CN1CCN(Cc2ccc(C(=O)Nc3cc(Oc4nc(-c5ccc(Cl)cc5)nc5cc[nH]c45)ccc3Cl)cc2C(F)(F)F)CC1` [III-k-13]: the GI50 in assay [1] worked out at 1550 nM; in assay [2], 1450 nM. Also, the IC50 in assay [3] is 1600 nM.

Regarding `Cc1ccc(-c2nc(Oc3ccc(Cl)c(NC(=O)c4ccc(CN5CCN(C)CC5)c(C(F)(F)F)c4)c3)c3c(ccn3C)n2)cc1` [III-k-16], the GI50 in assay [1] was 3190 nM; in assay [2] it was 2090 nM. The IC50 in assay [3] was found to be 3630 nM.

Take `CN1CCN(Cc2ccc(C(=O)Nc3cc(Oc4nc(-c5ccccc5)nc5cc[nH]c45)ccc3Cl)cc2C(F)(F)F)CC1` [III-k-17]: the GI50 in assay [1] was 2610 nM; in assay [2] it was 1410 nM. For the same molecule, the IC50 in assay [3] worked out at 2630 nM.

For the molecule `CN1CCN(Cc2ccc(C(=O)Nc3cc(Oc4nc(-c5ccccc5)nc5ccn(C)c45)ccc3Cl)cc2C(F)(F)F)CC1` [III-k-18], the GI50 in assay [1] was 3990 nM; in assay [2] it was 4120 nM. In assay [3], the IC50 was determined as 3890 nM.

`Cc1ccc(C(=O)Nc2ccc(CN3CCN(C)CC3)c(C(F)(F)F)c2)cc1Oc1nc(-c2ccccc2)nc2cc[nH]c12` [III-m-3]: the figures for the GI50 in assay [1] and in assay [2] were 2410 nM and 2710 nM, respectively. The IC50 in assay [3] is 3100 nM.

As to `Cc1ccc(-c2nc(Oc3cc(C(=O)Nc4ccc(CN5CCN(C)CC5)c(C(F)(F)F)c4)ccc3C)c3[nH]ccc3n2)cc1` [III-m-4], the values for the GI50 in assay [1] and in assay [2] were 3860 nM and 2720 nM, respectively. In addition, the IC50 in assay [3] is 3460 nM.

Consider `Cc1ccc(C(=O)Nc2ccc(CN3CCN(C)CC3)c(C(F)(F)F)c2)cc1Oc1nc(-c2cccc(Cl)c2)nc2cc[nH]c12` [III-m-5], for which the GI50 in assay [1] is 4040 nM; in assay [2] it was 3760 nM. In assay [3], the IC50 came out at 3920 nM.

For the molecule `Cc1ccc(C(=O)Nc2ccc(CN3CCN(C)CC3)c(C(F)(F)F)c2)cc1Oc1nc(-c2ccc(Cl)cc2)nc2cc[nH]c12` [III-m-6], the GI50 in assay [1] came to 3950 nM; in assay [2], 3770 nM. The IC50 in assay [3] was found to be 2790 nM.

Consider `Cc1ccc(C(=O)Nc2ccc(CN3CCN(C)CC3)c(C(F)(F)F)c2)cc1Oc1nc(-c2cccc(O)c2)nc2cc[nH]c12` [III-m-7], for which the GI50 in assay [1] worked out at 2350 nM; in assay [2], 1410 nM. Besides, the IC50 in assay [3] is 4330 nM.
